Source: patent publication US8323925B2, “Aβ-binding protein and its peptide derivatives and uses thereof” (priority 2005, dated 2012)
No end group written: not given here. His‑tag = His-Tag conjugated at the N-terminus

B1: PK-4: Recombinant 170 amino acid polypeptide (21 kDa), sequence 1171-1314 and 1369-1380 of human pericentriolar material protein-1, PCM-1 (protein)
chain: SGKTEYMAFPKPFESSSSIGAEKPRNKKLPEEEVESSRTPWLYEQEGEVEKPFIKTGFSVSVEKSTSSNRKNQLDTNGRRRQFDEESLESFSSMPDPVDPTTVTKTFKTRKASAQASLASKDKTPKSKSKKRNSTQLKSRVKNITHARRILQQSNRNACNEAPETGSDFSMFEA

Tests used:
AB1-42 [1] = target: T1, AB1-42 (Homo sapiens, UniProt P05067); experiment: Aβ binding of FC5-conjugated peptide
Source text: (§1) These fusion proteins can be used not only to specifically deliver ABPs to the brain but also inside brain cells. This is particularly important since intracellular Aβ is believed to play a major role in synaptic dysfunction and neurodegeneration well before the accumulation of insoluble Aβ in senile plaques^6,7. Such pseudo vaccines would be administered, for example, subcutaneously, and further ingredients beyond a pharmacologically acceptable carrier would not be necessary. […] Recombinant Aβ binding peptide P4-5 (rABP, His-tag-[…]) was conjugated to BBB-permeable single-domain antibody FC5 (FIG. 8A). The FC5 conjugated peptide (FC5/ABP) bound AB1-42 equally well as the synthetic (sABP) or non-conjugated peptide (rABP) (FIG. 8B).

[2] = assay type: in vitro ADME
Source text: as §1

[3] = Stability in serum containing medium; assay type: in vitro ADME; details: for stability in serum containing medium: up to 48 hrs
Description: (§2) All peptides P4, P5 and P4-5 are stable in serum containing medium for up to 48 hrs and also in rat blood plasma (FIG. 7). P4 peptide was incubated in culture medium containing 10% fetal calf serum for various time periods at 37° C. and the stability of p4 was tested by Western blot analysis using p4-specific antibody. No loss of P4 was detected over a 24 hour period.

[4] = Stability in rat blood plasma; assay type: in vitro ADME
Description: as §2

neuroblastoma cells = experiment: Toxicity in vitro against cultured neuroblastoma cells; assay type: cell-based; details: data not shown
Description: Human neuroblastoma cells, SH-SY5Y were treated with 15 μM Aβ in the presense or absence of Aβ binding peptide p4-5 in serum-free medium for 48 hrs and cell death was assessed by Hoechst stain.

primary cortical neurons = experiment: Toxicity in vitro against primary cortical neurons; assay type: cell-based; details: data not shown
CD-1 mice = experiment: Toxicity in vivo; design: species or system mouse; details: up to 20 mg/kg body weight
Aβ1-40 = Aβ1-40 (Homo sapiens, UniProt P05067); experiment: Aβ-binding of recombinant proteins by dot-blot assay; details: PK-4-specific antibody (FIG. 1B)
Description: (§3) Aβ-binding of recombinant proteins PK-4 and PK-3 with N-terminus His-tag was determined by dot-blot assay using His-Tag antibody (A) or PK-4-specific antibody (B), and by Biacore analysis (C). β-binding PK-4 is a […] amino acid-long polypeptide that corresponds to sequence 1171-1314, and 1369-1380, of the human pericentriolar material protein-1, PCM-1.

Aβ1-42 = Aβ1-42 (Homo sapiens, UniProt P05067); experiment: as above
Description: as §3

Aβ40-1 = experiment: Aβ-binding dot-blot assay, reverse peptide; details: dot-blot (FIG. 1B)
Description: as §3

Aβ42-1 = experiment: Aβ-binding dot-blot assay, reverse peptide; details: dot-blot (FIG. 1B)
Description: as §3

AB1-42 [5] = target: T1, AB1-42; experiment: Biacore analysis; assay type: binding; details: Biacore (FIG. 1C)
Description: as §3

rat brain PKC = experiment: PKC inhibitory activity in vitro; assay type: biochemical; details: rat brain PKC (FIG. 5)
Description: Various synthetic peptides derived from PK-4 (see FIG. 2) were tested for PKC inhibitory activity in vitro using rat brain PKC.

Chain of Aβ1-42 (P05067 672-713 limits assumed): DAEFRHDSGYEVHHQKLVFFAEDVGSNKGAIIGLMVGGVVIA
T1 sequence (P05067 672-713 limits assumed): as above
Chain of Aβ1-40 (P05067 672-711 limits assumed): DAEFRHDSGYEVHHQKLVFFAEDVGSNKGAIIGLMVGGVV

Molecule	crossing of BBB in vitro [2]	stability in serum containing medium [3]	stability in rat blood plasma [4]	toxicity in vitro against cultured neuroblastoma cells (neuroblastoma cells)	toxicity in vitro against primary cortical neurons (primary cortical neurons)	apparent toxicity in vivo (CD-1 mice)	other results
FC5/ABP: Recombinant Aβ binding peptide P4-5 conjugated to BBB-permeable single-domain antibody FC5 ({His‑tag}-MPDPVDPTTVTKTFKTRKASAQASLASKDKTPKSKSKKRNSTQLKSRVKNI; also: conjugated to single-domain antibody FC5)	crossed the barrier	–	–	–	–	–	binding of AB1-42 relative to synthetic or non-conjugated peptide (AB1-42 [1]): equally well
FSSMPDPVDPTTVTKTFKTRKASAQASLASKDKTPKSKSK [Peptide P4]	–	stable	stable	no toxicity	no toxicity	none of the peptides, p4, p5, or p4-5 showed any apparent toxicity	loss of peptide in culture medium containing 10% fetal calf serum ([3]; 37° C., over a 24 hour period, Western blot): No loss
His-tag-MPDPVDPTTVTKTFKTRKASAQASLASKDKTPKSKSKKRNSTQLKSRVKNI ({His‑tag}-MPDPVDPTTVTKTFKTRKASAQASLASKDKTPKSKSKKRNSTQLKSRVKNI) [rABP]	did not cross the BBB	–	–	–	–	–	–
KDKTPKSKSKKRNSTQLKSRVKNITHARRILQQSNRNACN [Peptide P5]	–	stable	stable	–	–	none of the peptides, p4, p5, or p4-5 showed any apparent toxicity	–
KTFKTRKASAQASLASKDKTPKSKSKKRNSTQLKSRVKNI [Peptide P4-5]	–	stable	stable	no toxicity	no toxicity	none of the peptides, p4, p5, or p4-5 showed any apparent toxicity	–
B1	–	–	–	–	–	–	binding affinity for Aβ1-40 (Aβ1-40): high affinity (nM range); selective binding of Aβ1-42 (Aβ1-42; His-Tag antibody (FIG. 1A)): selectively binds Aβ1-42; binding affinity for Aβ1-42 (Aβ1-42; PK-4-specific antibody (FIG. 1B)): high affinity (nM range); binding of reverse peptide Aβ40-1 (Aβ40-1): does not bind; binding of reverse peptide Aβ42-1 (Aβ42-1): does not bind; binding of AB1-42 (AB1-42 [5]): High affinity-binding; PKC inhibitory activity (rat brain PKC): inhibits
